# From paper PMC3966057 (Theranostics, 2014)
# Columns and labels:
# [1] = test system: RAW264.7 cells; assay: RAW 264.7 macrophage cell efflux of 18F-DPA-714; format: cell-based, mouse; settings: 2 h incubation with tracer
# [2] = test system: A549 tumors; assay: 18F-DPA-714 PET imaging of A549 xenograft tumor model; format: in vivo, mouse; settings: PET 1 h p.i., tumor volume 100-300 mm^3, athymic nude mice, mean ± SD
# [3] = test system: HT29 tumors; assay: 18F-DPA-714 PET imaging of HT29 xenograft tumor model; format: in vivo, mouse; settings: PET 1 h p.i., tumor volume 100-300 mm^3, athymic nude mice, mean ± SD
# [4] = test system: U87MG tumors; assay: 18F-DPA-714 PET imaging of U87MG xenograft tumor model; format: in vivo, mouse; settings: PET 1 h p.i., tumor volume 100-300 mm^3, athymic nude mice, mean ± SD
# [5] = test system: INS-1 tumors; assay: 18F-DPA-714 PET imaging of INS-1 xenograft tumor model; format: in vivo, mouse; settings: PET 1 h p.i., tumor volume 100-300 mm^3, athymic nude mice, mean ± SD
# [6] = test system: 4T1 tumors; assay: 18F-DPA-714 PET imaging of 4T1 xenograft tumor model; format: in vivo, mouse; settings: PET 1 h p.i., tumor volume 100-300 mm^3, FVB mice, mean ± SD
smiles,measurement,setting,value
CCN(CC)C(=O)Cc1c(-c2ccc(OCC[18F])cc2)nn2c(C)cc(C)nc12 [18F-DPA-714],Tracer retention after 1 h efflux as share of uptake,[1],around 50%
same,A549 tumor uptake of 18F-DPA-714,[2],0.46 ± 0.28 %ID/g
same,HT29 tumor uptake of 18F-DPA-714,[3],0.91 ± 0.08 %ID/g
same,U87MG tumor uptake of 18F-DPA-714,[4],1.69 ± 0.67 %ID/g
same,INS-1 tumor uptake of 18F-DPA-714,[5],1.13 ± 0.33 %ID/g
same,4T1 tumor uptake of 18F-DPA-714,[6],1.22 ± 0.55 %ID/g
